US9353075B2, “Disubstituted beta-lactones as inhibitors of N-acylethanolamine acid amidase (NAAA)” (The Regents of the University of California, priority 2011, dated 2016)
pIC50: −log10 of the molar value.

Assays:
[1] = molecular target: r-NAAA (Rattus norvegicus (Rat), UniProt Q5KTC7); experiment: r-NAAA inhibition, rat lung lysosomal NAAA preparation, UPLC/MS; type: biochemical; details: for inhibition at 3 µM: read-out: r-NAAA % inhib. @ 3 μM
Experimental: Lysosomal NAAA protein preparation were obtained by homogenizing male Sprague-Dawley rat lungs (Charles River) in 20 mM Tris-HCl buffer pH 7.4 containing 0.32M sucrose. Samples were centrifuged at 800×g for 15 minutes at 4° C. Supernatants were then centrifuged at 12,000 g for 30 minutes at 4° C. Pellets were then resuspended in PBS pH 7.4 and subjected to a freeze/thaw cycle at −80° C. The suspension was finally centrifuged at 105,000×g for 1 hour at 4° C. The supernatant was then used in the enzymatic assay.
NAAA protein preparation was pre-incubated with various concentrations of test compounds or vehicle control in 100 mM NaH2PO4/Citrate buffer, 1% Triton-X, 3 mM DTT (pH 4.5) for 30 minutes at 37° C. Samples were then incubated with heptadecenoylethanolamide (50 μM, Avanti Polar Lipids) at 37° C. for 30 min. The reaction was terminated by addition of cold methanol containing heptadecanoic acid (NuCheck Prep) as internal standard. Samples were then analyzed by UPLC/MS (Acquity, Waters). Heptadecenoic and heptadecanoic acids were eluted on an Acquity UPLC BEH C18 column (50 mm length, 2.1 mm i.d., 1.7 μm pore size, Waters) isocratically at 0.5 mL/min for 1.5 min with a solvent mixture of 95% methanol and 5% water, both containing 0.25% Acetic Acid and 5 mM Ammonium Acetate. The column temperature was 40° C. Electrospray ionization was in the negative mode, capillary voltage was 0.5 kV, cone voltage was […], desolvation temperature was 500° C. N2 was used as drying gas at a flow rate of 1000 L/hour and a temperature of 500° C. The [M−H]^− ion was monitored in the selected-ion monitoring mode (m/z values: heptadecenoic acid 267.37, heptadecanoic acid 269.37). Calibration curves were generated using commercial heptadecenoic acid (NuCheck Prep). Inhibition of NAAA activity was calculated as reduction of heptadecenoic acid in the samples compared to vehicle controls. IC50 values were calculated by non-linear regression analysis of log [concentration]/inhibition curves using GraphPad Prism 5 (GraphPad Software Inc., CA—USA) applying a standard slope curve fitting.

[2] = molecular target: T1, h-NAAA (Homo sapiens (Human), UniProt Q02083); experiment: UPLC/MS h-NAAA assay; type: biochemical
T1 sequence (Q02083 29-359): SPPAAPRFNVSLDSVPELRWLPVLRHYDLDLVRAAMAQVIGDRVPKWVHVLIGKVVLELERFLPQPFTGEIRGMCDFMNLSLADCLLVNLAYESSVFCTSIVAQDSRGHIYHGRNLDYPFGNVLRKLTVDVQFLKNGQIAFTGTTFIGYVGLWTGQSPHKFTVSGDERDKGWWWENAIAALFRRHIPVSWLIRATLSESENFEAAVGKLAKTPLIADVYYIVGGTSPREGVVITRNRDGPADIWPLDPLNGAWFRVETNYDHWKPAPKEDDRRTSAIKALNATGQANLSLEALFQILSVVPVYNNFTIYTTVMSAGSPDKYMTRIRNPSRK
Experimental: NAAA protein preparation (10 μg) was pre-incubated with various concentrations of test compound or vehicle control in 100 mM NaH2PO4, 100 mM Tri Sodium Citrate Dehydrate, 0.1% Triton-X 100, 3 mM DTT, pH 4.5 for 30 min at 37° C. Duplicate samples were then incubated with 50 μM C17:1 10-cis-heptadecenoylethanolamide (Avanti Polar Lipids, Alabaster, Ala.—USA) at 37° C. for 30 minutes. The reaction was terminated by the addition of 0.2 mL of cold methanol containing 1 nmol of heptadecanoic acid (NuChek Prep, Elysian, Minn.—USA) as internal standard. Samples were then analyzed by UPLC/MS. Heptadecenoic and heptadecanoic acids were eluted on an Acquity UPLC BEH C18 column (50 mm length, 2.1 mm i.d., 1.7 μm pore size, Waters) isocratically at 0.5 mL/min for 1.5 min with a solvent mixture of 95% methanol and 5% water, both containing 0.25% Acetic Acid and 5 mM Ammonium Acetate. The column temperature was 40° C. Electrospray ionization was in the negative mode, capillary voltage was 2.7 kV, cone voltage was 45 V, extractor voltage was 3 V. The source temperature was 150° C. with a desolvation temperature of 400° C. N2 was used as drying gas at a cone flow of 100 L/hour and a desolvation flow of […]. The [M−H]-ion was monitored in the selected-ion monitoring mode (m/z values: heptadecenoic acid 267.37, heptadecanoic acid 269.37). Calibration curves were generated using commercial heptadecenoic acid (NuCheck Prep) Inhibition of NAAA activity was calculated as reduction of heptadecenoic acid in the samples compared to vehicle controls. IC50 values were calculated by non-linear regression analysis of log [concentration]/inhibition curves using GraphPad Prism 5 (GraphPad Software Inc., CA—USA) applying a standard slope curve fitting.

[3] = molecular target: Acid Ceramidase (AC) (Rattus norvegicus (Rat), UniProt Q6P7S1); experiment: Acid ceramidase inhibition, recombinant rat AC, LC-MS; type: biochemical; details: for inhibition at 10 µM: read-out: r-AC % inhib. @ 10 μM
Sequence of Acid Ceramidase (AC) (Q6P7S1 21-394): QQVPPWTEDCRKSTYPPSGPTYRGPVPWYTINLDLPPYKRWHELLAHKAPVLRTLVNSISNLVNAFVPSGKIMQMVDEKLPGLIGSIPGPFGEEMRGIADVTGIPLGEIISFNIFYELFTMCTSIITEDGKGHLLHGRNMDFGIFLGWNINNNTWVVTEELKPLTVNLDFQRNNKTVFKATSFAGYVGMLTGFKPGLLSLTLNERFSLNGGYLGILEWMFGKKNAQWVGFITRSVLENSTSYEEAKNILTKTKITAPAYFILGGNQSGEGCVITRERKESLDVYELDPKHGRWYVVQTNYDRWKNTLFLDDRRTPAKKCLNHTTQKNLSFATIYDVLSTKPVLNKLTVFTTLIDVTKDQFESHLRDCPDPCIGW
Experimental: The PCR (High Fidelity PCR Master, Roche) product was subcloned into a pEF6-[…] vector (Invitrogen) to construct a mammalian expression vector encoding […]-tagged rat AC. HEK293 cells were transfected with pEF6-rAC-[…] using Super-Fect reagent (Qiagen) and screened with G418 (0.3 mg/mL). Cells were suspended in 20 mM Tris HCl (pH 7.5) containing 0.32M sucrose, sonicated and centrifuged at 800×g for 15 minutes at 4° C. The supernatants were centrifuged again at 12,000×g for 30 minutes at 4° C. The pellets were suspended in phosphate-buffered saline (PBS) and subjected to 2 freeze-thaw cycles at -80° C. The suspensions were centrifuged at 105,000×g for 1 hour at 4° C. The supernatants containing recombinant AC were kept at -80° C. until use. Protein concentration was measured using the bicinchoninic acid (BCA) assay (Pierce). […] Reactions were stopped by addition of a mixture of chloroform/methanol (2:1, vol/vol) containing 1 nmol of heptadecanoic acid (HDA; NuChek Prep). […] HDA was eluted on an XDB Eclipse C18 column isocratically at 2.2 mL/min for 1 minute with a solvent mixture of 95% methanol and 5% water, both containing 0.25% acetic acid and 5 mM ammonium acetate. The column temperature was 50° C. Electrospray ionization (ESI) was in the negative mode, capillary voltage as 4 kV, and fragmentor voltage was 100 V. N2 was used as drying gas at a flow rate of 13 L/min and a temperature of 350° C. Nebulizer pressure was set at 60 psi. We monitored [M-H]- in the selected-ion monitoring (SIM) mode using HDA as internal standard. Calibration curves were generated using commercial lauric acid (Nu-Chek Prep; m/z=199).

[4] = molecular target: T1, h-NAAA; experiment: Fluorogenic h-NAAA assay; type: biochemical
Experimental: (§1) The assay was run in Optiplate 96-wells black plates, in a total reaction volume of 200 mL. NAAA protein preparations (4 ng) were pre-incubated for 10 minutes with various concentrations of test compounds or vehicle control (5% DMSO) in 100 mM citrate/phosphate buffer (pH 4.5) containing 3.0 mM DTT, 0.1% Triton X-100, 0.05% BSA, 150 mM NaCl. N-(4-methyl-2-oxo-chromen-7-yl)-hexadecanamide was used as a substrate (5.0 μM) and the reaction carried over for 30 minutes at 37° C. Fluorescence in the samples was quantified in a Perkin Elmer Envision plate reader using an excitation wavelength of 360 nm and emission 460 nm. IC50 values were calculated by non-linear regression analysis of log [concentration]/inhibition curves using GraphPad Prism 5 (GraphPad Software Inc., CA—USA) applying a standard slope curve fitting.
as §1, with “μL.” for “mL.”, “preparation (4.0 μg) was” for “preparations (4 ng) were”, “min” for “minutes”, “The” for “Fluorescence in the”, “were then read” for “was quantified”

[5] = system: DNFB-induced scratching; experiment: DNFB-induced scratching in mice; type: in vivo, mouse; details: topical, single dose
Experimental: The methods included the following. Dermatitis was produced in mice using 2-4 dinitrofluorobenzene (DNFB) as described by Buckley and Nijkamp (1994), Am J Respir Grit Care Med 149:400-7. Mice were sensitized on two consecutive days with a 0.5% DNFB solution applied to the shaved abdomen. At day 8, the ears were challenged with a 0.2% DNFB solution. Ear thickness was determined by using a micrometer. Scratching was evaluated as number of episodes per 60 minutes period. Data were analysed by ANOVA followed by the Bonferroni's test. See also Hargreaves K, et al (1988), Pain 32: 77-88 for related information.
The methods include the following. Itching in mice was induced with DNFB as previously described. Additional studies were done with 48/80 model (an inducer of mast cell degranulation). 48/80 was given subcutaneously (30 mg per kg). Data were analysed by ANOVA followed by Bonferroni's test for multiple comparisons.

[6] = system: 48/80-induced scratching (mast cell degranulation); experiment: Compound 48/80-induced scratching in mice; type: in vivo, mouse; details: topical, single dose, 48/80 30 mg per kg s.c.
Experimental: The methods include the following. Itching in mice was induced with DNFB as previously described. Additional studies were done with 48/80 model (an inducer of mast cell degranulation). 48/80 was given subcutaneously (30 mg per kg).

Sequence of r-NAAA (Q5KTC7 34-362): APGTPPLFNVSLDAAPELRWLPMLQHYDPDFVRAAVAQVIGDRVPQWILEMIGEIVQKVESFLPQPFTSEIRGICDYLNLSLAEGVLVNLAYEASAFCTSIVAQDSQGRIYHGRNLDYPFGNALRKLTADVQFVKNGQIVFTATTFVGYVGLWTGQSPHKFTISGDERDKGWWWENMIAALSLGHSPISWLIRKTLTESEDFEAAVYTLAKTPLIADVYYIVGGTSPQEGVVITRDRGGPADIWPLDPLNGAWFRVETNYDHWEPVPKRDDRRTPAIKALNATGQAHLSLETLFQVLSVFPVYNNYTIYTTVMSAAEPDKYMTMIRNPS

SMILES | pIC50 [1] | pIC50 [2] | inhibition at 3 µM [1] | pIC50 [4] | further results
CC(CCCCc1ccccc1)OC(=O)N[C@H]1C(=O)O[C@H]1C (mixture of isomers) [Example 22, [(1R) and (1S)-1-methyl-5-phenyl-pentyl]-N-[(2S,3R)-2-methyl-4-oxo-oxetan-3-yl]-carbamate] | 7.52 | 7.85 |  |  | inhibition at 0.3 µM ([3]; read-out: r-AC % inhib. @ 0.3 μM): < 10%
C[C@@H]1OC(=O)[C@@H]1NC(=O)OC12CC3CC(CC(C3)C1)C2 [Example 12, Tricyclo[3.3.1.1^3,7]dec-1-yl [(2S,3R)-2-methyl-4-oxooxetan-3-yl]-carbamate] | 6.06 | 6.27 |  |  | 
C[C@@H]1C[C@H]2[C@@H]3CCC4=CC(=O)C=C[C@]4(C)[C@@]3(F)[C@@H](O)C[C@]2(C)[C@@]1(O)C(=O)CO [dexamethasone, reference compound] |  |  |  |  | DNFB-induced scratching [5]: increased scratching; 48/80-induced scratching [6]: without effect
C[C@@H]1OC(=O)[C@@H]1NC(=O)OCCCCC1CCCCC1 [Example 19, 4-cyclohexylbutyl-N-[(2S,3R)-2-methyl-4-oxo-oxetan-3-yl]-carbamate] | 7.70 | 8.05 |  | 8.10 | 
CCCCCCC[C@H](C)OC(=O)N[C@H]1C(=O)O[C@H]1C [Example 7, [(1S)-1-methyloctyl]-N-[(2S,3R)-2-methyl-4-oxo-oxetan-3-yl]-carbamate] | 7.80 | 8.30 |  |  | inhibition at 10 µM [3]: 45%
C[C@H]1C[C@H]2[C@@H]3CCC4=CC(=O)C=C[C@]4(C)[C@@]3(F)[C@@H](O)C[C@]2(C)[C@@]1(O)C(=O)CCl [clobetasol, reference compound] |  |  |  |  | DNFB-induced scratching [5]: increased scratching; 48/80-induced scratching [6]: without effect
CC(C)(C)[C@H]1OC(=O)[C@@H]1NC(=O)OCCCCCc1ccccc1 (relative stereo) [Example 56, 5-Phenylpentyl-N-[(2R*,3R*)-2-tert-butyl-4-oxo-oxetan-3-yl]-carbamate] |  |  | 75% | 6.57 | 
C[C@@H]1OC(=O)[C@@H]1NC(=O)OCCCOCc1ccccc1 [Example 18, 3-Benzyloxypropyl-N-[(2S,3R)-2-methyl-4-oxo-oxetan-3-yl]-carbamate] | 7.30 | 7.74 |  |  | inhibition at 10 µM [3]: < 10%

The next lines start with results.

pIC50 [1] | pIC50 [2] | inhibition at 3 µM [1] | pIC50 [4] | SMILES | further results
 |  | 67% | 6.56 | CC(C)(C)[C@@H]1OC(=O)[C@@H]1NC(=O)OCCCCCc1ccccc1 (relative stereo) [Example 58, 5-Phenylpentyl-N-[(2S*,3R*)-2-tert-butyl-4-oxo-oxetan-3-yl]-carbamate] | 
 |  | 92% | 8.40 | CC[C@H]1OC(=O)[C@@H]1NC(=O)OCCCCCc1ccccc1 (relative stereo) [Example 47, 5-Phenylpentyl-N-[(2R*,3R*)-2-ethyl-4-oxo-oxetan-3-yl]-carbamate] | 
 |  | 89% | 8.05 | CC[C@@H]1OC(=O)[C@@H]1NC(=O)OCCCCCc1ccccc1 (relative stereo) [Example 49, 5-Phenylpentyl-N-[(2S*,3R*)-2-ethyl-4-oxo-oxetan-3-yl]-carbamate] | 
7.80 | 8.30 |  |  | C[C@@H]1OC(=O)[C@@H]1NC(=O)OCCCCCC1CCCCC1 [Example 35, 5-Cyclohexylpentyl-N-[(2S,3R)-2-methyl-4-oxo-oxetan-3-yl]-carbamate] | inhibition at 10 µM [3]: < 10%
 |  | 98% | 7.92 | CC(C)[C@H]1OC(=O)[C@@H]1NC(=O)OC(C)(C)CCCCc1ccccc1 (relative stereo) [Example 55, (1,1-Dimethyl-5-phenyl-pentyl)-N-[(2R*,3R*)-2-isopropyl-4-oxo-oxetan-3-yl]-carbamate] | 
8.15 | 8.15 |  |  | C[C@@H]1OC(=O)[C@@H]1NC(=O)OCc1ccc(-c2ccccc2)cc1 [Example 17, (4-phenylphenyl)methyl-N-[(2S,3R)-2-methyl-4-oxo-oxetan-3-yl]-carbamate] | inhibition at 10 µM [3]: 30%
